Results from PMC8551653, “Bisphenol A derivatives act as novel coactivator-binding inhibitors for estrogen receptor β” (The Journal of Biological Chemistry, 2021).

Experiments:
ERβ [1] = target: T1, ERβ (Homo sapiens, UniProt Q92731); assay: Competitive binding assay with [3H]4OHT for WT ERβ; design: made in house; host or cells: Escherichia coli BL21α
Experimental: (§1) After successive incubation with 100 μl of 0.4% dextran-coated charcoal (DCC) (Sigma-Aldrich) in PBS (pH 7.4) on ice for 10 min, free radioligands bound to DCC were removed using a vacuum filtration system with a 96-well filtration plate (MultiScreenHTS HV, […], Merck KGaA) for the bound/free separation. The radioactivity of each eluent was measured using a liquid scintillation counter (LS6500; Beckman Coulter) and Clear-sol I (Nacalai Tesque Inc). […] Each compound was dissolved in dimethyl sulfoxide to prepare a 1.0 mM stock solution and further diluted to prepare serial dilutions (10^−12 M to 10^−5 M) in the binding buffer. […] Bound/free separation was performed as described above, and the radioactivity was determined using a MicroBeta microplate counter (PerkinElmer Inc). The IC50 value of each test compound was calculated from the dose–response curves generated via nonlinear regression analysis using Prism software (GraphPad Software Inc).
Target sequence in this assay (Q92731 263-530): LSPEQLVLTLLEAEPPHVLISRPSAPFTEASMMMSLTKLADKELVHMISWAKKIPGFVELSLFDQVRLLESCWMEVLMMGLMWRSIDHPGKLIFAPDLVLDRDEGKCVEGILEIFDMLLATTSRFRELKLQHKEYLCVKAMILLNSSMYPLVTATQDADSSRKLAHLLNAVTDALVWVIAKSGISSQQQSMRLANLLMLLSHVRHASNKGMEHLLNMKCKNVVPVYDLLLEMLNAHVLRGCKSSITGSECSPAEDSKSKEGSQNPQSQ

ERα = tested on: ERα; design: method as in PMID 31289329; settings: competitive binding, [3H] 17β-estradiol as radioligand; mean ± SD; read-out: Binding affinity (IC50, nM) ERα; cited from earlier work
ERβ [2] = target: T1, ERβ; assay: Luciferase reporter gene assay in HeLa cells, agonistic activity; type: cell-based; design: expressed in transfected cells; host or cells: HeLa; settings: for maximum fold induction (agonistic activity on ERβ) / ERβ agonist activity (in words): HeLa cells; for maximum fold induction (agonistic activity on ERβ): ERE luciferase reporter, tested up to 10 µM; for ERβ agonist activity (in words): WT ERβ
Experimental: (§2) HeLa cells were maintained in Eagle's minimum essential medium (Nissui Pharmaceutical Co, Ltd) supplemented with DCC-treated fetal bovine serum (10%, v/v) at 37 °C under 5% CO2. […] After a 24-h incubation, luciferase activity was measured using the ONE-Glo Luciferase Assay System (Promega Co) on an EnSpire multimode plate reader (PerkinElmer, Inc).
Target sequence in this assay (Q92731 whole entry): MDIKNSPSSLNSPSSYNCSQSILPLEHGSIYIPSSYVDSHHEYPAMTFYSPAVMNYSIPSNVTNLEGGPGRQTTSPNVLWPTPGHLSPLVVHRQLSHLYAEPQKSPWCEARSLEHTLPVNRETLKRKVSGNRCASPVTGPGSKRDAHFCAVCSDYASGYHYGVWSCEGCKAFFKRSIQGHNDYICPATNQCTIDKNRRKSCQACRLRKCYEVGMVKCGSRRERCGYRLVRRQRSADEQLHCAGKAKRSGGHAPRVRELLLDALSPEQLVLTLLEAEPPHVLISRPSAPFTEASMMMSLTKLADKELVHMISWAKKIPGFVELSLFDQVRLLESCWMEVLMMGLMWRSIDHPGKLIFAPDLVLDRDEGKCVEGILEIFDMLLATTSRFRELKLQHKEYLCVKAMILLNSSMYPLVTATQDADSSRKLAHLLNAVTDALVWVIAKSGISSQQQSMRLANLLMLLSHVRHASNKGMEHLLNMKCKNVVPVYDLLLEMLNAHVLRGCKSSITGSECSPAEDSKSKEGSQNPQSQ

ERβ(W335A) = ERβ(W335A) (Homo sapiens, UniProt Q92731, W335A); assay: Competitive binding assay for ERβ(W335A); design: made in house; host or cells: Escherichia coli BL21α (described for the wild-type LBD); settings: for shape of competitive binding curve, ERβ(W335A): Fig. 4B
Chain of ERβ(W335A) (Q92731 263-530 W335A): as the sequence (Q92731 263-530) above, with W73A counted along it
Experimental: as §1

ERβ [3] = target: T1, ERβ; assay: Radioligand competitive binding assay with [3H]E2 for ERβ (GST-ERβ-LBD); design: made in house; host or cells: Escherichia coli BL21α; settings: for preference of binding ERβ over ERα: ERβ versus ERα IC50
Experimental: Human ERβ cDNA was obtained from OriGene Technologies. The cDNA of ERβ-LBD was amplified using PCR and subcloned into a pGEX-6p-1 expression vector. The expression of GST-fused ERβ-LBD was induced by 1 mM IPTG in Escherichia coli BL21α at 16 °C for overnight. The resulting crude protein was affinity-purified using Glutathione-Sepharose 4B (Cytiva), followed by gel filtration using a Sephadex G-10 column (Cytiva).
Target sequence in this assay (Q92731 263-530): as the sequence (Q92731 263-530) above

ERβ [4] = target: T1, ERβ; assay: Luciferase reporter gene assay in HeLa cells, antagonistic activity against 10 nM E2; type: cell-based; design: expressed in transfected cells; host or cells: HeLa; settings: for transcriptional activity (%) at most effective inhibitory concentration, ratio to that of 10 nM E2: HeLa cells, in the presence of 10 nM E2, 0.1, 1, 10 µM tested; for ERβ antagonist activity (in words): against 10 nM E2-induced ERβ activation, 100 nM, 1 μM, 10 μM; for suppression of E2-induced activation: at the 10 μM concentration, 10 nM E2
Experimental: as §2
Target sequence in this assay (Q92731 whole entry): as the sequence (Q92731 whole entry) above

[5] = competitive binding, [3H] 17β-estradiol as radioligand, mean ± SD, read-out: Binding affinity (IC50, nM) ERβ

Row | SMILES | IC50 (ERα) [nM] | maximum fold induction (agonistic activity on ERβ) (ERβ [2]) | ERβ agonist activity (in words) (ERβ [2]) | IC50 (ERβ [3]) [nM] | transcriptional activity (%) at most effective inhibitory concentration, ratio to that of 10 nM E2 (ERβ [4]) [%] | ERβ antagonist activity (in words) (ERβ [4]) | other results
1 | Oc1ccc(C(=C(Cl)Cl)c2ccc(O)cc2)cc1 [Compound 1, 4,4'-(2,2-dichloroethene-1,1-diyl)diphenol] | 2.81 ± 0.61 | 2.39 | weak transcriptional activity | 2.99 ± 1 | 6.0 | strongest antagonistic activity | IC50 (ERβ [1]): 18.1 nM; shape of competitive binding curve, WT ERβ (ERβ [1]; [3H]4OHT radioligand): biphasic dose–response curve; IC50 (ERβ [1]; read-out: IC50, biphasic curve, low-affinity site, [3H]4OHT radioligand, WT ERβ): 2280 nM; IC50 (ERβ(W335A)): 691 ± 29 nM; shape of competitive binding curve, ERβ(W335A) (ERβ(W335A)): biphasic binding of BPC and BPAF was lost
2 | Oc1ccc(C(c2ccc(O)cc2)C(Cl)(Cl)Cl)cc1 [Compound 3, 2,2-bis(p-hydroxyphenyl)-1,1,1-trichloroethane] | – | – | – | – | – | antagonistic activities | preference of binding ERβ over ERα (ERβ [3]): three times stronger binding to ERβ than ERα
3 | Oc1ccc(C(c2ccc(O)cc2)(C(F)(F)F)C(F)(F)F)cc1 [Compound 4, 4,4'-(perfluoropropane-2,2-diyl)diphenol] | – | – | weak transcriptional activity | – | – | antagonistic activities | shape of competitive binding curve, WT ERβ (ERβ [1]; [3H]4OHT radioligand): biphasic binding curve; increase of ERβ binding compared with BPA (ERβ [1]; compared with BPA): ~50 fold; shape of competitive binding curve, ERβ(W335A) (ERβ(W335A)): biphasic binding of BPC and BPAF was lost; preference of binding ERβ over ERα (ERβ [3]): three times stronger binding to ERβ than ERα
4 | CC/C(=C(\c1ccc(O)cc1)c1ccc(OCCN(C)C)cc1)c1ccccc1 [Compound 4OHT, 4-Hydroxytamoxifen, reference compound] | […] | – | – | – | – | – | shape of competitive binding curve, WT ERβ (ERβ [1]; [3H]4OHT radioligand): biphasic curve
5 | Oc1ccc(C2(c3ccc(O)cc3)CCCCC2)cc1 [Compound 5, 4,4'-(cyclohexane-1,1-diyl)diphenol] | – | 3.29 | – | 21.6 ± 1.9 | 19.9 | – | –
6 | CCCCC(CC)C(c1ccc(O)cc1)c1ccc(O)cc1 (stereo not drawn) [Compound 6, 4,4′-(2-Ethylhexylidene)bisphenol] | 18.5 ± 6.7 | 1.59 | no agonist activity | – | 11.1 | – | IC50 (ERβ [3]; [5]): 25.9 ± 8.5 nM; suppression of E2-induced activation (ERβ [4]): 90%
7 | Cc1cc(C(c2ccccc2O)c2cc(C)c(O)c(C)c2C)c(C)c(C)c1O [Compound 7, 4,4′-(2-Hydroxybenzylidene)-bis(2,3,6-trimethylphenol)] | 12.3 ± 7.3 | 1.45 | no agonist activity | – | 6.6 | – | IC50 (ERβ [3]; [5]): 41.5 ± 2 nM; suppression of E2-induced activation (ERβ [4]): 90%
8 | CCC(C)(c1ccc(O)cc1)c1ccc(O)cc1 [Compound 8, 4,4'-(butane-2,2-diyl)diphenol] | 195 ± 44 | 5.13 | – | 79.8 ± 12.6 | 28.9 | weak antagonist activity | transcriptional activity as % of BPA-induced transcriptional activity (ERβ [2]; at the highest concentration of 10 μM): ~50%; inhibition of BPA-induced activation (ERβ [4]; as worded): 50%
9 | Cc1cc(C2(c3ccc(O)c(C)c3)CCCCC2)ccc1O [Compound 9, 1,1-Bis(4-hydroxy-3-methylphenyl)cyclohexane] | 38.6 ± 7.2 | 2.27 | – | – | 17.0 | – | IC50 (ERβ [3]; [5]): 132 ± 6.5 nM
10 | CC(C)(c1ccc(O)cc1)c1cccc(C(C)(C)c2ccc(O)cc2)c1 [Compound 10, 4,4'-(1,3-phenylenebis(propane-2,2-diyl))diphenol] | 56.8 ± 11.7 | 1.12 | no agonist activity | 148 ± 80 | 5.4 | antagonistic activity | –
11 | CC(c1ccccc1)(c1ccc(O)cc1)c1ccc(O)cc1 [Compound 11, 4,4'-(1-phenylethane-1,1-diyl)diphenol] | 259 ± 41 | – | – | – | – | – | –
12 | CC(C)(c1ccc(O)cc1)c1ccc(C(C)(c2ccc(O)cc2)c2ccc(O)cc2)cc1 [Compound 12, α, α, α′-Tris(4-hydroxyphenyl)-1-ethyl-4-isopropylbenzene] | 61.7 ± 10.4 | 1.02 | no agonist activity | 212 ± 36 | 7.7 | antagonistic activity | –
13 | Nc1cc(C(c2ccc(O)c(N)c2)(C(F)(F)F)C(F)(F)F)ccc1O [Compound 13, 2,2-Bis(3-amino-4-hydroxyphenyl)hexafluoropropane] | 334 ± 112 | 1.67 | – | – | 86.7 | – | IC50 (ERβ [3]; [5]): 224 ± 113 nM
14 | Oc1ccc(C2(c3ccc(O)cc3)c3ccccc3-c3ccccc32)cc1 [Compound 14, 9,9-Bis(4-hydroxyphenyl)fluorene] | 2230 ± 202 | 2.47 | – | 325 ± 60 | 76.9 | – | –
15 | Cc1cc(C2(c3ccc(O)c(C)c3)c3ccccc3-c3ccccc32)ccc1O [Compound 15, 9,9-Bis(4-hydroxy-3-methylphenyl)fluorene] | – | – | – | 405 ± 108 | – | weak antagonist | –
16 | CC(C)(c1ccc(O)cc1)c1ccc(C(C)(C)c2ccc(O)cc2)cc1 [Compound 16, 4,4'-(1,4-phenylenebis(propane-2,2-diyl))diphenol] | 176 ± 35 | 1.44 | no agonist activity | 607 ± 28 | 11.8 | antagonistic activity | –
17 | Nc1ccc(Oc2ccc(C(c3ccc(Oc4ccc(N)cc4)cc3)(C(F)(F)F)C(F)(F)F)cc2)cc1 [Compound 17, 2,2-Bis[4-(4-aminophenoxy)phenyl]hexafluoropropane] | 1030 ± 375 | 1.46 | – | 609 ± 81 | 99.1 | – | –
18 | Cc1cc(C(C)(C)c2ccc(C(C)(C)c3cc(C)c(O)c(C)c3)cc2)cc(C)c1O [Compound 20, α,α′-Bis(4-hydroxy-3,5-dimethylphenyl)-1,4-diisopropylbenzene] | 733 ± 628 | 0.99 | no agonist activity | – | 6.4 | antagonistic activity | IC50 (ERβ [3]; [5]): > 10000 nM
19 | C[C@]12CC[C@@H]3c4ccc(O)cc4CC[C@H]3[C@@H]1CC[C@@H]2O [Compound E2, Estradiol, reference compound] | 0.88 ± 0.13 | – | – | – | – | – | –
